From patent US20090105278A1, “Selective inhibitors of human corticosteroid syntheses” (Universitat Des Saarlandes, priority 2004, published 2009) come the findings set out here.

Where a name gives a salt, the structure may show the parent alone. Read-outs that look alike come from different tables or passages of the source.

In one assay the target is T1, human CYP11B1 (Homo sapiens, UniProt P15538).
T1 construct: expressed in transfected cells; host or cells: V79 MZh11B1 (Chinese hamster lung fibroblasts)
T1 sequence (P15538 25-503): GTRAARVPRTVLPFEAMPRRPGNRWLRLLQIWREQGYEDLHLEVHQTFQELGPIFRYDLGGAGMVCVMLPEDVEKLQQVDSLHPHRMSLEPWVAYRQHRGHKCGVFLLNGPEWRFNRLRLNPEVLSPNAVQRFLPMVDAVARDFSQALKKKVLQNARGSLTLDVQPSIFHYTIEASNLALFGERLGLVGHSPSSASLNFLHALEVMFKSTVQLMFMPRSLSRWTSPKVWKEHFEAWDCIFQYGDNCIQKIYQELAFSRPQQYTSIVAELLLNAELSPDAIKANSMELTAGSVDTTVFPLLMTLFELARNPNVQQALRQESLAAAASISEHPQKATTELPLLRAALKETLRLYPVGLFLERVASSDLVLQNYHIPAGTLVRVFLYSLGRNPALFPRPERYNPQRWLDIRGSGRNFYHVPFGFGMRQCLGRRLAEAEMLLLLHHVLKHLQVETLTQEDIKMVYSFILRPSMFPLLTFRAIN
The assay can be described thus: V79 MZh 11B1 cells inhibition test. It counts as cell-based. To be noted: hamster fibroblasts which express human CYP11B1; deoxycorticosterone substrate 100 nM; read-out: IC50 V79 11B1 hCYP11B1. On the procedure: Both cell lines were cultured in DMEM^+ containing […] and the antibiotics penicillin and streptomycin (10%) for protection from bacterial contamination. The cells were passaged every 2-3 days after treatment with trypsin/EDTA because the doubling rate was 1-2 days depending on the number of cells. […] When there was further need, freshly thawed cells were employed.
Thereafter, the plate was stored at 37° C. and […] in a CO2 incubator. […] Controls without inhibitor were treated in the same way. The enzyme reactions were quenched by extracting the supernatant with 500 μl of EtOAc. The samples were centrifuged (10,000 g, 2 min), the solvent was removed and evaporated.
It was calculated by determining the percent inhibition for at least 3 different inhibitor concentrations, which must all be in the linear range of the sigmoidal IC50 curve (log C/% inhibition).
The calculation was effected by linear regression. The values determined were used only if they formed a straight line with a reliability of […].
(§1) The plate was developed twice with the mobile solvent chloroform:methanol:water (300:20:1). Unlabeled 11-deoxycorticosterone and corticosterone were applied as a reference for the CYP11B1 reaction. For the CYP11B2 reaction, 11-deoxycorticosterone, corticosterone, 18-hydroxycorticosterone and aldosterone were used as references. The detection of the unlabeled references was effected at 260 nm. Subsequently, imaging plates (BAS MS2340, for ^14C samples, Raytest, Straubenhardt, Germany) were exposed to the HPTLC plates for 48 h. The imaging plates were scanned with the phosphoimager system Fuji FLA 3000 (Raytest, Straubenhardt, Germany), and the steroids were quantified.

In a further assay the target is T2, human CYP11B2 (Homo sapiens, UniProt P19099).
T2 sequence (P19099 25-503): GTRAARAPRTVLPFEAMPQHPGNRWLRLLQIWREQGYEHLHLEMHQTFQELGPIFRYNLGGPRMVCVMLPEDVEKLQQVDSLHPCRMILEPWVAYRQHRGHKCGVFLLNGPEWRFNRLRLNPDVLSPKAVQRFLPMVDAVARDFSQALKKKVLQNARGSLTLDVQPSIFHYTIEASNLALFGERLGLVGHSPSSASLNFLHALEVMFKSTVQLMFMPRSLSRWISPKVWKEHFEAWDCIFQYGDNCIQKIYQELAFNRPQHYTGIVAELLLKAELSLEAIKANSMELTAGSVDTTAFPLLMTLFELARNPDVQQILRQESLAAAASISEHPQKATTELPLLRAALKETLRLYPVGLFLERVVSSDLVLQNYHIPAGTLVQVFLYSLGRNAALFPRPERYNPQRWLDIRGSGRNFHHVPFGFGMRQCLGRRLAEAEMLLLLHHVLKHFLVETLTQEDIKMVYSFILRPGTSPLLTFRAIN
The assay can be described thus: Screening test in transgenic fission yeast (S. pombe PE1) expressing human CYP11B2. It counts as cell-based. The arrangement: expressed in transfected cells. As to conditions: for inhibition at 0.5 µM: read-out: % Inhibition human hCYP11B2. On the procedure:
492.5 μl of this cell suspension was admixed with 5 μl of inhibitor solution (50 μM of the compound to be tested in ethanol or DMSO) and incubated at 32° C. for 15 min. Controls were admixed with 5 μl of ethanol. […] The test was quenched by extracting the sample with 500 μl of EtOAc. After centrifugation (10,000 g, 2 min), the EtOAc phase was removed and evaporated to dryness. […] The reaction of the substrate to form corticosterone was analyzed by HPTLC (see below).
The quantification of the spots for the substrate deoxycorticosterone and the products corticosterone (and, if detectable, 18-hydroxycorticosterone and aldosterone) was effected with the related evaluation program AIDA. […] The calculation of the conversion rate was effected according to equation 1.
as §1

Where [1] appears, read: S. pombe cells which express human CYP11B2, deoxycorticosterone substrate 100 nM, inhibitor 500 nM.

With `COc1ccc2c(c1)CCC/C2=C\c1cccnc1` [Compound 13a, 3-[(E)-(6-Methoxy-3,4-dihydronaphthalene-1(2H)-ylidene)methyl]pyridine Hydrochloride], at human CYP11B1, the IC50 (usually the midpoint of a concentration-inhibition curve) is 903 nM. Moreover, the inhibition (commonly how much of the control response was suppressed) at 0.5 µM on human CYP11B2 (setting [1]) was found to be 52%.
In the case of “5-[(E)-(6-Chloro-3,4-dihydronaphth-1(2H)-ylidene)methyl]-1H-imidazolium chloride [Compound 46a]”, at human CYP11B2 (setting [1]), the “% Inhibition human hCYP11B2” value worked out at 48%.
On to `C(=C1/CCc2ccccc21)/c1cnc[nH]1` [Compound 42a, 5-[(E)-2,3-Dihydro-1H-indane-1-ylidenemethyl]-1H-imidazole], for which, at human CYP11B1, the IC50 was 25.9 nM. The inhibition at 0.5 µM at human CYP11B2 (setting [1]) was 77%.
For `Fc1ccc2c(c1)CC/C2=C\c1cncnc1` [Compound 28a, 5-[(E)-(5-Fluoro-2,3-dihydro-1H-indane-1-ylidene)methyl]pyrimidine Hydrochloride] the same measures were 3180 nM and 72%.
As to `Fc1ccc2c(c1)CC/C2=C\c1cccc2cnccc12` [Compound 30a, 5-[(E)-(5-Fluoro-2,3-dihydro-1H-indane-1-ylidene)methyl]isoquinoline Hydrochloride], the IC50 at human CYP11B1 is 1130 nM. In addition, the inhibition at 0.5 µM at human CYP11B2 (setting [1]) came to 60%.
On to `Fc1ccc2c(c1)CC/C2=C/c1ccncc1` [Compound 6b, 4-[(Z)-(5-Fluoro-2,3-dihydro-1H-indane-1-ylidene)methyl]pyridine Hydrochloride], for which the IC50 on human CYP11B1 turned out to be 257 nM. For the same compound, the inhibition at 0.5 µM on human CYP11B2 is 77%.
Regarding `Cc1cccc2c1CC/C2=C\c1cccnc1` [Compound 23a, 3-[(E)-(4-Methyl-2,3-dihydro-1H-indane-1-ylidene)methyl]pyridine Hydrochloride], the 50% inhibitory concentration (IC50) on human CYP11B1 worked out at 763 nM. For the same compound, the inhibition at 0.5 µM on human CYP11B2 (setting [1]) is 52%.
Regarding `COc1cccc2c1/C(=C/c1cccnc1)CC2` [Compound 26a, 3-[(E)-(7-Methoxy-2,3-dihydro-1H-indane-1-ylidene)methyl]pyridine Hydrochloride], at human CYP11B1, the IC50 came to 955 nM. At human CYP11B2 (setting [1]), the inhibition at 0.5 µM worked out at 76%.
Turning to `COc1ccc2c(c1)CC/C2=C/c1cccnc1` [Compound 11b, 3-[(Z)-(5-Methoxy-2,3-dihydro-1H-indane-1-ylidene)methyl]pyridine Hydrochloride], the IC50 on human CYP11B1 worked out at 790 nM. The inhibition at 0.5 µM on human CYP11B2 (setting [1]) amounted to 81%.
On the same counts, the results for `Fc1cccc2c1CC/C2=C\c1cccnc1` [Compound 24a, 3-[(E)-(4-Fluoro-2,3-dihydro-1H-indane-1-ylidene)methyl]pyridine Hydrochloride] are 774 nM and 84%.
`Clc1cccc2c1CC/C2=C/c1cccnc1` [Compound 25b, 3-[(Z)-(4-Chloro-2,3-dihydro-1H-indane-1-ylidene)methyl]pyridine Hydrochloride]: the IC50 at human CYP11B1 turned out to be 657 nM. Besides, at human CYP11B2 (setting [1]), the inhibition at 0.5 µM worked out at 83%.
On the same counts, the results for `C(=C1\CCc2ccccc21)/c1cnc[nH]1` [Compound 42b, 5-[(Z)-2,3-Dihydro-1H-ind-1-ylidenemethyl]-1H-imidazolium oxalate] are 6.1 nM and 81%.
On the same counts, the results for `COc1ccc2c(c1)CCC/C2=C/c1cccnc1.Cl` [Compound 13b, 3-[(Z)-(6-Methoxy-3,4-dihydronaphthalene-1(2H)-ylidene)methyl]pyridine Hydrochloride] are 206 nM and 53%.
For `Fc1ccc2c(c1)CC/C2=C\c1ccncc1` [Compound 6a, 4-[(E)-(5-Fluoro-2,3-dihydro-1H-indane-1-ylidene)methyl]pyridine Hydrochloride], the concentration for half-maximal inhibition (IC50) on human CYP11B1 turned out to be 380 nM. Besides, the inhibition at 0.5 µM at human CYP11B2 is 37%.
In the case of “5-[(Z)-(5-Bromo-2,3-dihydro-1H-indene-1-ylidene)methyl]-1H-imidazolium oxalate [Compound 49b]”, the IC50 at human CYP11B1 was 23.5 nM. Further, the “% Inhibition human hCYP11B2” value on human CYP11B2 (setting [1]) was 76%.
Turning to `Brc1ccc2c(c1)CC/C2=C\c1ccncc1` [Compound 10a, 4-[(E)-(5-Bromo-2,3-dihydro-1H-indane-1-ylidene)methyl]pyridine Hydrochloride], the half-maximal inhibitory concentration (IC50) on human CYP11B1 was determined as 948 nM. The inhibition at 0.5 µM on human CYP11B2 is 17%.
Regarding `COc1ccc2c(c1)CC/C2=C\c1cccnc1` [Compound 11a, 3-[(E)-(5-Methoxy-2,3-dihydro-1H-indane-1-ylidene)methyl]pyridine Hydrochloride], the IC50 on human CYP11B1 is 1450 nM. In addition, the inhibition at 0.5 µM on human CYP11B2 (setting [1]) is 79%.
For `CCOc1ccc2c(c1)CC/C2=C\c1cccnc1` [Compound 19a, 3-[(E)-(5-Ethoxy-2,3-dihydro-1H-indane-1-ylidene)methyl]pyridine Hydrochloride] the same measures were 2370 nM and 67%.
Consider `C(=C1\CCc2ccccc21)/c1cccnc1.Cl` [Compound 1b, 3-[(Z)-2,3-Dihydro-1H-indane-1-ylidenemethyl]pyridine Hydrochloride], for which the IC50 at human CYP11B1 turned out to be 86.6 nM. Moreover, the “% Inhibition human hCYP11B2” value at human CYP11B2 (setting [1]) is reported as 83%.
For the compound `Clc1cccc2c1CC/C2=C\c1cccnc1` [Compound 25a, 3-[(E)-(4-Chloro-2,3-dihydro-1H-indane-1-ylidene)methyl]pyridine Hydrochloride], on human CYP11B1, the IC50 is 304 nM. Further, the inhibition at 0.5 µM on human CYP11B2 (setting [1]) was found to be 92%.
For the compound `Clc1ccc2c(c1)CC/C2=C\c1ccncc1` [Compound 8a, 4-[(E)-(5-Chloro-2,3-dihydro-1H-indane-1-ylidene)methyl]pyridine Hydrochloride], the IC50 at human CYP11B1 was determined as 243 nM. The inhibition at 0.5 µM at human CYP11B2 came to 38%.
Regarding `C(=C1\CCc2ccccc21)/c1ccncc1` [Compound 2b, 4-[(Z)-2,3-Dihydro-1H-indane-1-ylidenemethyl]pyridine oxalate], at human CYP11B1, the half-inhibitory concentration (IC50) was 1320 nM.
With “5-[(Z)-(5-Chloro-2,3-dihydro-1H-indene-1-ylidene)methyl]-1H-imidazolium oxalate [Compound 48b]”, on human CYP11B2 (setting [1]), the “% Inhibition human hCYP11B2” value turned out to be 80%.
Regarding `C(=C1/CCCc2ccccc21)/c1cnc[nH]1` [Compound 41a, 5-[(E)-3,4-Dihydronaphth-1(2H)-ylidenemethyl]-1H-imidazole], the inhibition at 0.5 µM on human CYP11B2 (setting [1]) turned out to be 80%.
Take “5-[(Z)-3,4-Dihydronaphth-1(2H)-ylidenemethyl]-1H-imidazolium oxalate [Compound 41b]”: the “% Inhibition human hCYP11B2” value at human CYP11B2 (setting [1]) turned out to be 82%.
For `Brc1ccc2c(c1)CC/C2=C\c1cnc[nH]1.Cl` [Compound 49a, 5-[(E)-(5-Bromo-2,3-dihydro-1H-indene-1-ylidene)methyl]-1H-imidazolium chloride], at human CYP11B2 (setting [1]), the inhibition at 0.5 µM worked out at 68%.
For the compound `Cl.Clc1ccc2c(c1)CC/C2=C\c1cnc[nH]1` [Compound 48a, 5-[(E)-(5-Chloro-2,3-dihydro-1H-indene-1-ylidene)methyl]-1H-imidazolium chloride], on human CYP11B2 (setting [1]), the inhibition at 0.5 µM turned out to be 79%.
